Earlier results on 3 compounds are cited in PubChem BioAssay AID1259409 (Chemical Carcinogenesis Research Information System (CCRIS), 2018).

The series has as its system rodent chemically induced tumor inhibition, incidence and multiplicity. Briefly: CCRIS tumor inhibitor studies.

Take `CC(C)=CC[C@@H](O)C1=CC(=O)c2c(O)ccc(O)c2C1=O`: the “tumour outcome (control, treated, inhibition, significance)” value was 13/27 (48%), 6/20 (30%), 38%, not significant (Carcinogen: AZOXYMETHANE, 25843-45-2, Dose [Inhibitor]: 0, 0.02% IN DIET IN WK 1-3 OF STUDY FOLLOWED BY BASAL DIET FOR DURATION OF STUDY (STUDY DURATION: 1 YR), Route [Inhibitor]: ORAL, Species: RAT, Strain/Sex: F344/MALE, Target Tissue: Type of Lesion: LARGE INTESTINE: ADENOCARCINOMA, Dose [Carcinogen]: 15 MG/KG BW 1/WK IN WK 1 AND 2 OF STUDY, Promoter: NONE USED); 6/27 (22%), 4/20 (20%), 9%, not significant (Carcinogen: AZOXYMETHANE, 25843-45-2, Dose [Inhibitor]: 0, 0.02% IN DIET IN WK 1-3 OF STUDY FOLLOWED BY BASAL DIET FOR DURATION OF STUDY (STUDY DURATION: 1 YR), Route [Inhibitor]: ORAL, Species: RAT, Strain/Sex: F344/MALE, Target Tissue: Type of Lesion: LARGE INTESTINE: ADENOMA, Dose [Carcinogen]: 15 MG/KG BW 1/WK IN WK 1 AND 2 OF STUDY, Promoter: NONE USED); 6/27 (22%), 1/20 (5%), 77%, not significant (Carcinogen: AZOXYMETHANE, 25843-45-2, Dose [Inhibitor]: 0, 0.02% IN DIET IN WK 1-3 OF STUDY FOLLOWED BY BASAL DIET FOR DURATION OF STUDY (STUDY DURATION: 1 YR), Route [Inhibitor]: ORAL, Species: RAT, Strain/Sex: F344/MALE, Target Tissue: Type of Lesion: SMALL INTESTINE: ADENOCARCINOMA, Dose [Carcinogen]: 15 MG/KG BW 1/WK IN WK 1 AND 2 OF STUDY, Promoter: NONE USED).
For `Cn1cnc2c1c(=O)[nH]c(=O)n2C`, the “tumour outcome (control, treated, inhibition, significance)” value (Carcinogen: URETHANE, 51-79-6, Dose [Inhibitor]: 0.05 UMOL/G BW GIVEN AS 7 INJECTIONS 1/6 HR FOR 36 HR AFTER CARCINOGEN TREATMENT FOLLOWED BY 5 MO OBSERVATION PERIOD (ST, Route [Inhibitor]: INTRAPERITONEAL, Species: MOUSE, Strain/Sex: ICR/FEMALE, Target Tissue: Type of Lesion: LUNG: PAPILLARY ADENOMA, Dose [Carcinogen]: 0.1 MG/G BW ONCE AT 25 D OF AGE, Promoter: NONE USED) was 31/59 (53%), 11/56 (20%), 62%, p<0.001.
Turning to `CS(=O)(=O)Nc1ccc([N+](=O)[O-])cc1Oc1ccccc1`, the “tumour outcome (control, treated, inhibition, significance)” value is 30/42 (71%), 19/37 (51%), 28.2%, not significant (Carcinogen: 2-AMINO-1-METHYL-6-PHENYL-1H-IMIDAZO[4,5-B]PYRID INE [105650-23-5], Dose [Inhibitor]: 0, 400 PPM IN DIET FOR DURATION OF STUDY BEGINNING 1 D PRIOR TO CARCINOGEN TREATMENT (STUDY DURATION: 21 WK), Route [Inhibitor]: ORAL, Species: RAT, Strain/Sex: SPRAGUE-DAWLEY/FEMALE, Target Tissue: Type of Lesion: MAMMARY GLAND: DUCTAL CARCINOMA, Dose [Carcinogen]: 85 MG/KG BW 4X/WK FOR 2 WK); 23/24 (95.8%), 24/25 (96.0%), -0.2%, not significant (Carcinogen: 7, 12-DIMETHYLBENZ(A)ANTHRACENE [57-97-6], Dose [Inhibitor]: 5 MG/KG BW TWICE WEEKLY BEGINNING 3 D BEFORE FIRST CARCINOGEN DOSE FOR 13 WK (STUDY DURATION: 13 WK), Route [Inhibitor]: SUBCUTANEOUS, Species: RAT, Strain/Sex: SPRAGUE-DAWLEY/FEMALE, Target Tissue: Type of Lesion: MAMMARY GLAND: TUMOR, Dose [Carcinogen]: 10 MG THREE TIMES BETWEEN POSTNATAL DAYS 45-59); 10/10 (100%), 6/10 (60%), 40%, p<0.05 (Carcinogen: AZOXYMETHANE (25843-45-2), Dose [Inhibitor]: 0, 0.04% 1 WK AFTER END OF DEXTRAN SODIUM SULFATE TREATMENT FOR 14 WKS (STUDY DURATION: 17 WKS), Route [Inhibitor]: DIET, Species: MOUSE, Strain/Sex: CD-1/FEMALE (10,10)/(10,10), Target Tissue: Type of Lesion: COLON: ADENOMA, Dose [Carcinogen]: 10 MG/KG ONCE, Promoter: DEXTRAN SODIUM SULFATE (9011-18-1)); 10/10 (100%), 4/10 (40%), 60%, p<0.01 (Carcinogen: AZOXYMETHANE (25843-45-2), Dose [Inhibitor]: 0, 0.04% IN DIET 1 WK AFTER END OF DEXTRAN SODIUM SULFATE TREATMENT FOR 14 WKS (STUDY DURATION: 17 WKS), Route [Inhibitor]: DIET, Species: MOUSE, Strain/Sex: CD-1/FEMALE (10,10)/(10,10), Target Tissue: Type of Lesion: COLON: ADENOCARCINOMA, Dose [Carcinogen]: 10 MG/KG ONCE, Promoter: DEXTRAN SODIUM SULFATE (9011-18-1)); 14/28 (50%), 12/37 (32%), 36%, not significant (Carcinogen: AZOXYMETHANE, 25843-45-2, Dose [Inhibitor]: 0, 200 PPM IN DIET FOR DURATION OF STUDY BEGINNING 1D PRIOR TO CARCINOGEN TREATMENT (STUDY DURATION: 30 WK), Route [Inhibitor]: ORAL, Species: MOUSE, Strain/Sex: ICR/MALE, Target Tissue: Type of Lesion: COLON: CARCINOMA, Dose [Carcinogen]: 10 MG/KG BW IN SALINE 1/WK FOR 6 WK, Promoter: NONE USED); 14/28 (50%), 10/40 (25%), 50%, p<0.05 (Carcinogen: AZOXYMETHANE, 25843-45-2, Dose [Inhibitor]: 0, 400 PPM IN DIET FOR DURATION OF STUDY BEGINNING 1 D PRIOR TO CARCINOGEN TREATMENT (STUDY DURATION: 30 WK), Route [Inhibitor]: ORAL, Species: MOUSE, Strain/Sex: ICR/MALE, Target Tissue: Type of Lesion: COLON: CARCINOMA, Dose [Carcinogen]: 10 MG/KG BW IN SALINE 1/WK FOR 6 WK, Promoter: NONE USED). The “tumour outcome (control, treated, inhibition, significance)” value is 18/20 (90%), 12/20 (60%), 33%, not significant (Carcinogen: N-BUTYL-N-(4-HYDROXYBUTYL)NITROSAMINE, 3817-11-6, Dose [Inhibitor]: 0, 100 PPM IN DIET FOR 12 WK BEGINNING POST CARCINOGEN TREATMENT (STUDY DURATION: 20 WK), Route [Inhibitor]: ORAL, Species: RAT, Strain/Sex: F344/MALE, Target Tissue: Type of Lesion: URINARY BLADDER: TRANSITIONAL CELL CARCINOMA, Dose [Carcinogen]: 0.05% IN DRINKING WATER FOR 8 WK, Promoter: NONE USED); 18/20 (90%), 8/16 (50%), 44%, p<0.05 (Carcinogen: N-BUTYL-N-(4-HYDROXYBUTYL)NITROSAMINE, 3817-11-6, Dose [Inhibitor]: 0, 200 PPM IN DIET FOR 12 WK BEGINNING POST CARCINOGEN TREATMENT (STUDY DURATION: 20 WK), Route [Inhibitor]: ORAL, Species: RAT, Strain/Sex: F344/MALE, Target Tissue: Type of Lesion: URINARY BLADDER: TRANSITIONAL CELL CARCINOMA, Dose [Carcinogen]: 0.05% IN DRINKING WATER FOR 8 WK, Promoter: NONE USED); 18/20 (90%), 5/19 (26%), 71%, p<0.0002 (Carcinogen: N-BUTYL-N-(4-HYDROXYBUTYL)NITROSAMINE, 3817-11-6, Dose [Inhibitor]: 0, 400 PPM IN DIET FOR 12 WK BEGINNING POST CARCINOGEN TREATMENT (STUDY DURATION: 20 WK), Route [Inhibitor]: ORAL, Species: RAT, Strain/Sex: F344/MALE, Target Tissue: Type of Lesion: URINARY BLADDER: TRANSITIONAL CELL CARCINOMA, Dose [Carcinogen]: 0.05% IN DRINKING WATER FOR 8 WK, Promoter: NONE USED); 17/18 (94%), 10/18 (55.6%), 41%, p<0.05 (Carcinogen: N-METHYL-N-NITROSOUREA [684-93-5], Dose [Inhibitor]: 5 MG/KG BW TWICE WEEKLY BEGINNING 5 D BEFORE FIRST CARCINOGEN DOSE FOR 27 WK (STUDY DURATION: 27 WK), Route [Inhibitor]: SUBCUTANEOUS, Species: RAT, Strain/Sex: SPRAGUE-DAWLEY/FEMALE, Target Tissue: Type of Lesion: MAMMARY GLAND: TUMOR, Dose [Carcinogen]: 50 MG/KG BW TWICE ON POSTNATAL DAYS 51 AND 58).
